ChEMBL document CHEMBL5131570, “Discovery of Potent Small-Molecule USP8 Inhibitors for the Treatment of Breast Cancer through Regulating ERα Expression” (J Med Chem, 2022)
Calls of active or inactive are those of the source. The rule behind the calls is not given here.

The molecules below were run against T1, Ubiquitin carboxyl-terminal hydrolase 8 (Homo sapiens, UniProt P40818) (assay: Inhibition of human full length USP8 overexpressed in baculovirus-infected insect cells using ubiquitin-C-terminal 7-amido-4-methylcoumarin as substrate by fluorescence spectroscopy). Details: not given.
T1 sequence (P40818 whole entry): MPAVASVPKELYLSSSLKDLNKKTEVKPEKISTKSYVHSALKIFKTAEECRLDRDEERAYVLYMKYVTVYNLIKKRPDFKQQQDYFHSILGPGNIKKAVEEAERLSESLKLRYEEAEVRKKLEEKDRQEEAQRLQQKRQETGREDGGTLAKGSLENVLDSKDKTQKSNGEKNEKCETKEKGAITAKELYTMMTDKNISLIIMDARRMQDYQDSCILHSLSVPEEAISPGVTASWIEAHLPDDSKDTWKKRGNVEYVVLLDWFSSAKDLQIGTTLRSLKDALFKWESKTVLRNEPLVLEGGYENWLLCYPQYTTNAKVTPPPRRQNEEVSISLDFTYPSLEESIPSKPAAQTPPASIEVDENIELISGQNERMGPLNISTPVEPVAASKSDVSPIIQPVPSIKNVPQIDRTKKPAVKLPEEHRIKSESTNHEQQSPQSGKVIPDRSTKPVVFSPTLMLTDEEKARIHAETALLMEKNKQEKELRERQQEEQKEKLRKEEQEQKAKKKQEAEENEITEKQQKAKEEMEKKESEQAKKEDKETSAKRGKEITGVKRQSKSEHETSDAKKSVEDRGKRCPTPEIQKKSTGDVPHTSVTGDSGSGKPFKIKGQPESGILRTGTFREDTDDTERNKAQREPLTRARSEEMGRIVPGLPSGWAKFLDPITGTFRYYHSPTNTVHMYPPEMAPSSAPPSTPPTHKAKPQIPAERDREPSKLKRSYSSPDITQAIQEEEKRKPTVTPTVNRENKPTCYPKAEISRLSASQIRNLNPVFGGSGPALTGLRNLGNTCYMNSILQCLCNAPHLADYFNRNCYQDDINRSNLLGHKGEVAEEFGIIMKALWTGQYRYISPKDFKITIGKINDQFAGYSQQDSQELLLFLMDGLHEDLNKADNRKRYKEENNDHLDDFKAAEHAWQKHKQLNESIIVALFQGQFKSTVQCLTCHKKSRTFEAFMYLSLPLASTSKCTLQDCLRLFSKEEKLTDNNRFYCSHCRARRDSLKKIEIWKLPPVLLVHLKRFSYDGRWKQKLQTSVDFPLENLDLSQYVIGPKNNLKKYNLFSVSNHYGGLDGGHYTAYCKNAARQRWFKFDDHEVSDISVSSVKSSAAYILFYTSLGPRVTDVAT

SMILES | IC50 [µM]
N#Cc1nc2c(nc1C#N)-c1ccccc1/C2=N\OCc1ccccc1 | 0.85
N#Cc1cc2c(cc1C#N)-c1ccccc1C2=O | 0.29
C=CCO/N=C1\c2ccccc2-c2nc(C#N)c(C#N)nc21 | 0.56

The molecules below were run against T2, Ubiquitin carboxyl-terminal hydrolase 7 (Homo sapiens, UniProt Q93009) (assay: Inhibition of human full length USP7 overexpressed in baculovirus-infected insect cells using ubiquitin-C-terminal 7-amido-4-methylcoumarin as substrate by fluorescence spectroscopy). Details: not given.
T2 sequence (Q93009 whole entry): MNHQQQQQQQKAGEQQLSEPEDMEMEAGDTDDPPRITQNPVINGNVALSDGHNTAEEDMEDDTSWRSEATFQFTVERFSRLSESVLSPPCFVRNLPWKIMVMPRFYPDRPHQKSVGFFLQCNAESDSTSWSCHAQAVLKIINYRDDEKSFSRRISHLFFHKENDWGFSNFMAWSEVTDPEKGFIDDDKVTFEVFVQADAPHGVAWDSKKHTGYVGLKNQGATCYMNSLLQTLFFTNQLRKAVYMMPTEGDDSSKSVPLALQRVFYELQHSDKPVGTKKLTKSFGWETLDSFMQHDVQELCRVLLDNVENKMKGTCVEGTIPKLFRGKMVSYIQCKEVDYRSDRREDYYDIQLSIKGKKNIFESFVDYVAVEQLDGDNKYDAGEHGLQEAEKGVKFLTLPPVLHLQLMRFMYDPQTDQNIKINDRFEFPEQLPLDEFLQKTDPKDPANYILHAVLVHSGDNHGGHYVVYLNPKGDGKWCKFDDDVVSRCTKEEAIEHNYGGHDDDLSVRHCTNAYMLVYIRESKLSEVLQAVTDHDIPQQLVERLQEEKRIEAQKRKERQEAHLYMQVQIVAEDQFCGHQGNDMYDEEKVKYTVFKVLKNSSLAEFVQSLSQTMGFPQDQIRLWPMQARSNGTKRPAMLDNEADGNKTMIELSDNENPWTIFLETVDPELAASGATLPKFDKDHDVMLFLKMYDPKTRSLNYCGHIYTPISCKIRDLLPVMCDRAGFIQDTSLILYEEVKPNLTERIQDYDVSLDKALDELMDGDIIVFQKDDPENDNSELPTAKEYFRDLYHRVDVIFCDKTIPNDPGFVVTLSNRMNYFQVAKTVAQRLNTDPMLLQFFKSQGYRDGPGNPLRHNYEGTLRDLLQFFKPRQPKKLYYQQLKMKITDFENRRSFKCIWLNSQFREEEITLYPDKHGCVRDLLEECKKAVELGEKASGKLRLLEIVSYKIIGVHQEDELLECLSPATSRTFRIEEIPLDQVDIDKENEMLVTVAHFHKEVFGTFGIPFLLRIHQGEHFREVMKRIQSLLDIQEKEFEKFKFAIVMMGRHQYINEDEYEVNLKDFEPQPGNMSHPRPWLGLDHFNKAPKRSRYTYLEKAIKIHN

SMILES | IC50 [µM]
N#Cc1cc2c(cc1C#N)-c1ccccc1C2=O | 3.5

These molecules were tested against T2, Ubiquitin carboxyl-terminal hydrolase 7 (assay: Inhibition of USP7 (unknown origin) […]). Details: not given.

IC50 [µM] | SMILES
10.5 | COc1ccc(N2CCN(C(=S)Nc3ccc([N+](=O)[O-])cc3)CC2)c(N)c1

What follows are molecules tested against T1, Ubiquitin carboxyl-terminal hydrolase 8 (assay: (§1) Inhibition of N-terminal His6-tagged USP8 (unknown origin) expressed in Escherichia coli BL21 (DE3) cells using ubiquitin-rhodamine -110 as substrate incubated for 15 mins followed by substrate addition measured after 1 hrs by ubiquitin-rhodamine-110 based fluorometric assay). Details: not given.

IC50 [µM] | SMILES
2.6 | COc1ccc(N2CCN(C(=S)Nc3ccc([N+](=O)[O-])cc3)CC2)c(N)c1

What follows are molecules tested against T1, Ubiquitin carboxyl-terminal hydrolase 8 (assay: as §1, with “origin) catalytic domain (734 to 1110 residues)” for “origin)”, “cells assessed as deubiquitinating activity” for “cells”, “30” for “15”, “30 mins” for “1 hrs”). Details: not given.

SMILES | IC50 [µM]
Cc1n[nH]c(C)c1Oc1c(O)cc(O)c2c(=O)cc(-c3ccc(N4CCN(C(C)C)CC4)cc3)oc12 | 16.3
O=c1cc(-c2ccc(N3CCCNCC3)cc2)oc2c(OC3CCCCC3)c(O)cc(O)c12 | 16.2
COc1c(O)cc(O)c2c(=O)cc(-c3ccc(N4CCCNCC4)cc3)oc12 | 31.6
CCN1CCN(c2ccc(-c3cc(=O)c4c(O)cc(O)c(Oc5c(C)n[nH]c5C)c4o3)cc2)CC1 | 15.5
COc1c(O)cc(O)c2c(=O)cc(-c3ccc(N4CCN(C)CC4)cc3)oc12 | 16.5

The remaining lines, values ahead:

IC50 [µM] | SMILES
45.2 | COc1c(O)cc(O)c2c(=O)cc(-c3ccc(N4CCN(CCO)CC4)cc3)oc12
43.7 | COc1c(O)cc(O)c2c(=O)cc(-c3ccc(N(CCO)CCO)cc3)oc12
36 | COc1c(O)cc(O)c2c(=O)cc(-c3ccc(N4CCC(O)CC4)cc3)oc12
24.5 | CC(C)Oc1c(O)cc(O)c2c(=O)cc(-c3ccc(N4CCCNCC4)cc3)oc12
23.5 | Cc1n[nH]c(C)c1Oc1c(O)cc(O)c2c(=O)cc(-c3ccc(N4CCN(CCO)CC4)cc3)oc12
18.3 | COc1c(O)cc(O)c2c(=O)cc(-c3ccc(N4CCOCC4)cc3)oc12
17.6 | Cc1n[nH]c(C)c1Oc1c(O)cc(O)c2c(=O)cc(-c3ccc(N4CCCNCC4)cc3)oc12
16.2 | COc1c(O)cc(O)c2c(=O)cc(-c3ccc(N4CCCC4)cc3)oc12
5.1 | Cc1n[nH]c(C)c1Oc1c(O)cc(O)c2c(=O)cc(-c3ccc(N4CCN(C(=O)c5ccco5)CC4)cc3)oc12
3.5 | Cc1n[nH]c(C)c1Oc1c(O)cc(O)c2c(=O)cc(-c3ccc(N4CCN(c5ccccc5)CC4)cc3)oc12
2.2 | COc1c(O)cc(O)c2c(=O)cc(-c3ccc(N4CCN(C=O)CC4)cc3)oc12

These molecules were tested against T1, Ubiquitin carboxyl-terminal hydrolase 8 (assay: Binding affinity to N-terminal His6-tagged USP8 catalytic domain (734 to 1110 residues) (unknown origin) expressed in Escherichia coli BL21 (DE3) cells by surface plasmon resonance method). Details: not given.

Kd [µM] | SMILES
43.6 | COc1c(O)cc(O)c2c(=O)cc(-c3ccc(N4CCCNCC4)cc3)oc12

These molecules were tested on MCF7 (assay: Antiproliferative activity against human MCF7 cells assessed as reduction in colony formation at 3 uM incubated for 7 days by crystal violet staining based colony formation assay). Details: time 7.0 day.
Type: functional, cell-based

SMILES | Activity
CCO/N=C1/c2ccccc2-c2nc(C#N)c(C#N)nc21 | Active

Each molecule was assayed against NAD(P)H dehydrogenase [quinone] 1 (Homo sapiens) (UniProt P15559) (assay: Substrate activity at NQO1 (unknown origin) assessed as reduction in NADPH level measured per umol of NQO1 at 20 uM in presence of NADPH by absorbance based analysis). Details: not given.
Sequence of NAD(P)H dehydrogenase [quinone] 1 (Homo sapiens) (P15559 whole entry): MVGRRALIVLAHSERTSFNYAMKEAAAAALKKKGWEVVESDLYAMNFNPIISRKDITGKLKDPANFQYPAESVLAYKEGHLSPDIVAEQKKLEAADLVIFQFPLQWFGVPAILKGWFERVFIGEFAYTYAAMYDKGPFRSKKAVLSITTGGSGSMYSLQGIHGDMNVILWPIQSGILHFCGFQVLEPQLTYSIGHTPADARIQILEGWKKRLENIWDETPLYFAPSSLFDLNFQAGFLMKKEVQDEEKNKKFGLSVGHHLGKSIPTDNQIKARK

SMILES | Activity [µmol/min]
CCO/N=C1/c2ccccc2-c2nc(C#N)c(C#N)nc21 | 1300
